Measured values taken from patent US11813276B2, “Compositions and methods for the treatment of AUD” (University of Southern California, priority 2020, dated 2023).

How the values were obtained:
mice [1] = test: Earlier ethanol drinking studies with avermectins given alone; assay type: in vivo; settings: for time from administration to time of significant reduction of ethanol intake: avermectin alone
Description: The altered function or expression of central nervous system (CNS) genes has long been considered a significant factor in contributing to the behavioral phenotype of alcoholism. By profiling gene expression in rodent strains undergoing multiple drinking paradigms, researchers have begun to identify potential candidate genes and pathways that may impart novel mechanistic information that drives the neurobiology of alcoholism.

mice [2] = settings: cited from earlier work

Structure (SMILES): CO/N=C1\C[C@]2(C[C@@H]3C[C@@H](C/C=C(\C)C[C@@H](C)/C=C/C=C4\CO[C@@H]5[C@H](O)C(C)=C[C@@H](C(=O)O3)[C@]45O)O2)O[C@H](/C(C)=C/C(C)C)[C@H]1C [MOX, moxidectin]
- time from administration to time of significant reduction of ethanol intake (mice [1]): 4 h
- toxicity or addictive liabilities (mice [1]; mouse, in vivo): nor was any measured or observed obvious increase in toxicity or addictive liabilities

Structure (SMILES): CC[C@H](C)[C@H]1O[C@]2(CC[C@@H]1C)C[C@@H]1C[C@@H](C/C=C(\C)[C@@H](O[C@H]3C[C@H](OC)[C@@H](O[C@H]4C[C@H](OC)[C@@H](O)[C@H](C)O4)[C@H](C)O3)[C@@H](C)/C=C/C=C3\CO[C@@H]4[C@H](O)C(C)=C[C@@H](C(=O)O1)[C@]34O)O2 [IVM, ivermectin]
- time from administration to time of significant reduction of ethanol intake (mice [1]): 8 h
- effect of chronic administration on the reduction of ethanol intake (tolerance) (mice [1]; chronic administration): did not significantly alter the reduction of ethanol intake
- toxicity or addictive liabilities (mice [1]; chronic administration, ethanol drinking studies): nor was any measured or observed obvious increase in toxicity or addictive liabilities
- voluntary ethanol intake (mice [2]; IVM alone, doses between 2.5 mg/kg and 10 mg/kg, mice models (Yardlet et al., 2012)): significant reduction in the voluntary ethanol intake
- ethanol intake (mice [2]; male and female mice, avermectin alone): significantly reduced ethanol intake
